Assay results taken from PubChem BioAssay AID328 (DTP/NCI, 2004).
Values joined by “and” are separate entries in the source; they are usually repeats but may differ in a detail not shown here. Equal entries are not always repeated. Toxic doses and inconclusive results are not listed.

System: BDF1 mice, P388 leukemia ip, median survival T/C
Test: NCI In Vivo Anticancer Drug Screen. Data for tumor model P388 Leukemia (intraperitoneal) in B6D2F1 (BDF1) mice
Conditions: endpoint: median survival time, higher = longer survival
Outline: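 Mice carrying the transplantable tumour receive compound or vehicle. Survival is followed in each arm, and the treated measure is divided by the vehicle measure.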

[1] = dose: 0.75 mg/kg/injection, schedule: Q01DX009 (ip), vehicle: saline

Which results are given for CCNc1ccc(/C=C2\C=Cc3ccccc32)cc1?
T/C (dose: 0.39 mg/kg/injection, schedule: Q01DX009 (ip), vehicle: Klucel (hydroxypropylcellulose) (HPC)): 100 % of control; T/C (dose: 0.78 mg/kg/injection, schedule: Q01DX009 (ip), vehicle: Klucel (hydroxypropylcellulose) (HPC)): 105 % of control; T/C (dose: 1.56 mg/kg/injection, schedule: Q01DX009 (ip), vehicle: Klucel (hydroxypropylcellulose) (HPC)): 110 % of control; T/C (dose: 3.12 mg/kg/injection, schedule: Q01DX009 (ip), vehicle: Klucel (hydroxypropylcellulose) (HPC)): 90 % of control; T/C (dose: 6.25 mg/kg/injection, schedule: Q01DX009 (ip), vehicle: olive oil, sesame oil, peanut oil): 113 % of control; T/C (dose: 12.5 mg/kg/injection, schedule: Q01DX009 (ip), vehicle: Klucel (hydroxypropylcellulose) (HPC)): 95 % of control; T/C (dose: 12.5 mg/kg/injection, schedule: Q01DX009 (ip), vehicle: olive oil, sesame oil, peanut oil): 118 % of control; T/C (dose: 25.0 mg/kg/injection, schedule: Q01DX009 (ip), vehicle: olive oil, sesame oil, peanut oil): 118 % of control; T/C (dose: 50.0 mg/kg/injection, schedule: Q01DX009 (ip), vehicle: olive oil, sesame oil, peanut oil): 100 % of control

How did the T/C (dose: 176.0 mg/kg/injection, schedule: Q04DX003 (ip), vehicle: saline with Tween-80) turn out when O=C(O)c1ccccc1N=Cc1ccccc1O was run?
Its T/C is 109 % of control.

What about the T/C (dose: 264.0 mg/kg/injection, schedule: Q04DX003 (ip), vehicle: saline with Tween-80) of the same compound?
Its T/C is 109 % of control.

And the T/C (dose: 400.0 mg/kg/injection, schedule: Q04DX003 (ip), vehicle: saline with Tween-80)?
The T/C was 109 % of control.

Which results are given for COC(=O)C1=C(C)N[C@@]2(C)[C@H](C(=O)OC)C[C@H]1C2(C(C)=O)C(C)=O?
T/C (dose: 50.0 mg/kg/injection, schedule: Q01DX009 (ip), vehicle: saline with Tween-80): 116 % of control; T/C (dose: 100.0 mg/kg/injection, schedule: Q01DX009 (ip), vehicle: saline with Tween-80): 109 % of control; T/C (dose: 200.0 mg/kg/injection, schedule: Q01DX009 (ip), vehicle: saline with Tween-80): 109 % of control

For CS(=O)(=O)Nc1ccc(Nc2c3ccccc3nc3cc(N)ccc23)cc1, which T/C (dose: 0.22 mg/kg/injection, schedule: Q01DX009 (ip), vehicle: saline) is on record?
The T/C was 205 % of control.

What about the T/C (dose: 0.33 mg/kg/injection, schedule: Q01DX009 (ip), vehicle: saline) of the same compound?
Its T/C is 205 % of control.

And the T/C (dose: 0.44 mg/kg/injection, schedule: Q04DX003 (ip), vehicle: saline)?
Its T/C is 159 % of control.

And the T/C (dose: 0.5 mg/kg/injection, schedule: Q01DX009 (ip), vehicle: saline)?
Its T/C is 222 % of control.

And the T/C (dose: 0.56 mg/kg/injection, schedule: Q01DX009 (ip), vehicle: saline)?
Its T/C is 222 % of control.

And the T/C (dose: 0.66 mg/kg/injection, schedule: Q04DX003 (ip), vehicle: saline)?
Its T/C is 168 % of control.

And the T/C [1]?
The T/C was 253 % of control.

And the T/C (dose: 0.83 mg/kg/injection, schedule: Q01DX009 (ip), vehicle: saline)?
The T/C was 275 % of control.

What about the T/C (dose: 1.0 mg/kg/injection, schedule: Q04DX003 (ip), vehicle: saline) of the same compound?
Its T/C is 154 % of control.

And the T/C (dose: 1.25 mg/kg/injection, schedule: Q01DX009 (ip), vehicle: saline)?
The T/C was 268 % of control and 271 % of control.

And the T/C (dose: 1.5 mg/kg/injection, schedule: Q04DX003 (ip), vehicle: saline)?
Its T/C is 190 % of control.

What about the T/C (dose: 1.87 mg/kg/injection, schedule: Q01DX009 (ip), vehicle: saline) of the same compound?
Its T/C is 111 % of control.

What about the T/C (dose: 2.5 mg/kg/injection, schedule: Q01DX009 (ip), vehicle: saline) of the same compound?
Its T/C is 97 % of control.

And the T/C (dose: 2.9 mg/kg/injection, schedule: Q04DX003 (ip), vehicle: saline)?
Its T/C is 245 % of control.

What about the T/C (dose: 4.4 mg/kg/injection, schedule: Q04DX003 (ip), vehicle: saline) of the same compound?
Its T/C is 168 % of control.

What about the T/C (dose: 6.6 mg/kg/injection, schedule: Q04DX003 (ip), vehicle: saline) of the same compound?
The T/C was 281 % of control.

What about the T/C (dose: 10.0 mg/kg/injection, schedule: Q04DX003 (ip), vehicle: saline) of the same compound?
The T/C was 195 % of control.

For O=C(NCCNC(=O)c1cccc([N+](=O)[O-])c1O)c1cccc([N+](=O)[O-])c1O, which T/C (dose: 50.0 mg/kg/injection, schedule: Q01DX001 (ip), vehicle: Klucel (hydroxypropylcellulose) (HPC)) is on record?
Its T/C is 100 % of control.

What about the T/C (dose: 100.0 mg/kg/injection, schedule: Q01DX001 (ip), vehicle: Klucel (hydroxypropylcellulose) (HPC)) of the same compound?
The T/C was 100 % of control.

And the T/C (dose: 200.0 mg/kg/injection, schedule: Q01DX001 (ip), vehicle: Klucel (hydroxypropylcellulose) (HPC))?
Its T/C is 104 % of control.

With O=S(=O)(O)SCCNCCCCCC1CCCCC1 as the compound, how does the T/C [1] read?
Its T/C is 100 % of control.

And the T/C (dose: 1.5 mg/kg/injection, schedule: Q01DX009 (ip), vehicle: saline)?
The T/C was 100 % of control.

And the T/C (dose: 3.0 mg/kg/injection, schedule: Q01DX009 (ip), vehicle: Klucel (hydroxypropylcellulose) (HPC))?
Its T/C is 100 % of control.

And the T/C (dose: 3.0 mg/kg/injection, schedule: Q01DX009 (ip), vehicle: saline)?
Its T/C is 100 % of control.

What about the T/C (dose: 6.0 mg/kg/injection, schedule: Q01DX009 (ip), vehicle: Klucel (hydroxypropylcellulose) (HPC)) of the same compound?
Its T/C is 115 % of control.

And the T/C (dose: 6.0 mg/kg/injection, schedule: Q01DX009 (ip), vehicle: saline)?
Its T/C is 105 % of control.
